Reference: paper PMC6123365, “Pharmacokinetics of Nuciferine and N-Nornuciferine, Two Major Alkaloids From Nelumbo nucifera Leaves, in Rat Plasma and the Brain” (Frontiers in Pharmacology, 2018)
Like-named read-outs stand apart in the source and are kept apart here.

Legend:
[1] = design: method as in earlier work; conditions: ref National Center for Biotechnology Information. PubChem Compound Database (CID = 10146; CID = 12313579); cited from earlier work
[2] = Plasma pharmacokinetics after single oral dose of lotus leaf alkaloid fraction; type: in vivo, SD rats; conditions: for bioavailability / Tmax / AUC(0-inf) / AUC(0-t) / Cmax / MRT inf / half-life: male; for bioavailability: SD, rat, from plasma AUC0-inf after oral (50 mg/kg) and i.v. (10 mg/kg) alkaloid fraction, read-out: F (absolute oral bioavailability); for Tmax / AUC(0-inf) / AUC(0-t) / Cmax / MRT inf / half-life / CL / Vd, λz: rat plasma, mean ± SD, n = 5; for Tmax: oral alkaloid fraction 50 mg/kg (NF 22.5, N-NF 10 mg/kg); for AUC(0-inf) / AUC(0-t) / Cmax / MRT inf / half-life / CL / Vd, λz: oral alkaloid fraction 50 mg/kg; for half-life: read-out: t1/2, λz (converted)
Experimental: (§1) The experimental animals (n = 10), male SD rats (200 ± 20 g), were supplied by the Institute of Laboratory Animal Sciences, Chinese Academy of Medical Sciences and Peking Union Medical College (Beijing, China). The animal experiments were approved by the Animal Ethics Committee at the Institute of Medicinal Plant Development, Chinese Academy of Medical Sciences. The day before the experiment, a light surgery was performed. A polyethylene catheter (0.50-mm ID, 1.00-mm OD, Portex Limited, Hythe, Kent, England) was cannulated into the right jugular vein under anesthesia with an intraperitoneal dose of chloral hydrate at 350 mg/kg. After surgery, the rats were placed individually in cages and allowed to recover for at least 12 h. The rats were fasted overnight with free access to water prior to drug administration.
(§2) Rats were randomly divided into two groups (five per group). Group 1 was treated with the alkaloid fraction dissolved in 0.03% HCl at a single oral dose of 50 mg/kg by gastric gavage. Group 2 was treated with the alkaloid fraction dissolved in normal saline solution containing 0.03% HCl at an i.v. dose of 10 mg/kg by rapid injection via the catheter. After i.v. administration, 0.2 mL of heparinized saline was injected into the catheter for cleaning.
(§3) Blood samples (0.2 mL) were collected from the catheter at multiple intervals (0.08, 0.17, 0.25, 0.50, 1, 2, 4, 6, 8, 12, and 16 h) after dosing. Samples were placed into a heparinized centrifuge tube and centrifuged at 3,000 × g and 4°C for 3 min for plasma separation. An aliquot (0.1 mL) of each separated plasma sample was immediately analyzed or stored at -20°C until assay. After each blood collection, 0.2 mL of normal saline containing 20 units of heparin was injected into the catheter to flush the catheter and prevent coagulation.
(§4) An aliquot of 100 μL of plasma was vortexed with 20 μL of IS (10 μg/mL) and then mixed with 1.5 mL of ethyl acetate for 10 min. Following centrifugation at 8,000 × g for 5 min, the organic phase was completely transferred to a glass tube and concentrated by a gentle nitrogen stream at 40°C. Subsequently, the residue was reconstituted in 150 μL of 80% methanol. Then, the solution was transferred into a small clean tube and centrifuged for 5 min at 16,000 × g. Finally, 10 μL of the supernatant was directly injected into the UPLC system for analysis.
(§5) Pharmacokinetic parameters were estimated by the drug concentration in the plasma or brain versus time profiles using WinNonlin software (Pharsight Corporation, Mountain View, CA, United States, Version 2.1). A non-compartmental model was employed to calculate the following parameters: initial plasma concentration (C0) for the i.v. dose, plasma or brain maximum concentration (Cmax), time of maximum concentration (Tmax), terminal elimination half-life (t1/2, λz), area under the plasma concentration versus time curve from time zero to the last sampling time (AUC0-t) and zero to infinity (AUC0-inf), total body clearance (CL), volume of distribution (Vd, λz), and MRT. Absolute bioavailability (F) was calculated based on the plasma AUC0-inf obtained after oral and i.v. administration at the equivalent dose. The analyte concentration (Cf) in the brain lateral ventricle at each time point was calculated from its probe recovery (Rdial) and determined concentration (Cd) in dialysate by the equation, Cf = Cd/Rdial.

[3] = tested on: CYP2D6 isoenzyme; design: method as in Ye et al., 2014; conditions: competitive manner; ref Ye et al., 2014; cited from earlier work
[4] = Plasma pharmacokinetics after single i.v. dose of lotus leaf alkaloid fraction; type: in vivo, SD rats; conditions: male, iv, rat plasma, i.v. alkaloid fraction 10 mg/kg, mean ± SD, n = 5; for Vd: read-out: Vd, λz; for half-life: read-out: t1/2, λz (converted)
Experimental: as §1, §2, §3, §4, §5

[5] = Brain pharmacokinetics (unbound, lateral ventricle) by microdialysis after i.v. dose of alkaloid fraction; type: in vivo, rats; conditions: rat brain lateral ventricle, mean ± SD, n = 6; for AUC(0-inf) / AUC(0-t) / MRT inf / half-life / Tmax / Cmax: Sprague-Dawley, brain lateral ventricle microdialysate (unbound), iv; for half-life: read-out: t1/2, λz (converted); for Tmax / Cmax: unbound; for Tmax: i.v. alkaloid fraction 20 mg/kg (NF 9, N-NF 4 mg/kg)
Experimental: The microdialysis experiment was conducted as previously described ([Xiao et al., 2016]). Briefly, the rats were anesthetized with an intraperitoneal dose of chloral hydrate 350 mg/kg, and a guide cannula [MAB6 (9).14.IC; MAB, Stockholm, Sweden] was stereotaxically implanted into the lateral ventricle of the brain at the following coordinates relative to bregma: anterior -0.9 mm; lateral +1.5 mm; and lowered 3.1 mm ventral to the dura surface. The guide cannula was secured in place with skull screws and dental cement. The rats were placed in separate cages for at least 3 days to recover. Then, a light surgery was performed as described above.
The probe was perfused with aCSF containing 5 mM β-CD at a flow rate of 2 μL/min. The brain microdialysis system consisted of a syringe microinfusion pump (CMA 400, CMA Microdialysis, Solna, Sweden), equipment for freely moving animals (CMA 120, CMA Microdialysis, Solna, Sweden), a microdialysis probe (MAB6.14.4; 4 mm, MAB, Stockholm, Sweden) and an automatic sample collector (CMA 470, CMA Microdialysis, Solna, Sweden) set at 4°C. The rat was allowed to equilibrate for 1 h prior to the initiation of sample collection. After blank dialysate samples were collected, the animal received an i.v. dose of the alkaloid fraction at 20 mg/kg by injection through the jugular vein. An 8 min delay was incorporated into the sampling procedure to compensate for the dead volume between the active membrane and the sample collection outlet. The dialysates were collected every 20 min time interval for 2 h and then every 30 min time interval for 4 h. The collected samples were kept at 4°C and analyzed within 24 h.
as §5

[6] = rats, cited from earlier work
[7] = i.v. alkaloid fraction 20 mg/kg

SMILES: COc1cc2c3c(c1OC)-c1ccccc1CC3NCC2 (centres unmarked) [N-NF, N-nornuciferine]
- LogP [1]: 3
- bioavailability [2]: 79.9%
- Tmax [2]: 1.65 ± 0.78 h
- AUC(0-inf) [2]: 3400 ± 700 ng·h/mL
- AUC(0-t) [2]: 3320 ± 670 ng·h/mL
- Cmax [2]: 570 ± 100 ng/mL
- MRT inf [2]: 4.71 ± 0.72 h
- half-life [2]: 2.94 ± 0.4 h
- CL [2]: 40.7 ± 9.33 mL/min/kg
- Vd, λz [2]: 10.34 ± 2.64 L/kg
- inhibition of CYP2D6 isoenzyme activity [3]: significantly inhibit
- AUC(0-inf) [4]: 850 ± 280 ng·h/mL
- AUC(0-t) [4]: 740 ± 200 ng·h/mL
- C0 [4]: 690 ± 560 ng/mL
- MRT inf [4]: 4.94 ± 1.83 h
- clearance [4]: 43.5 mL/min/kg
- Vd [4]: 15.2 ± 2.17 L/kg
- half-life [4]: 3.84 ± 1.27 h
- AUC(0-inf) [5, 7]: 500 ± 60 ng·h/mL
- AUC(0-t) [5, 7]: 460 ± 70 ng·h/mL
- MRT inf [5, 7]: 2.98 ± 0.49 h
- half-life [5, 7]: 1.39 ± 0.68 h
- Tmax [5]: 1.22 ± 0.27 h
- Cmax [5, 7]: 160 ± 30 ng/mL
- CL/F [5, 7]: 135 ± 16.7 mL/min/kg

SMILES: COc1cc2c3c(c1OC)-c1ccccc1C[C@H]3N(C)CC2 [NF, nuciferine]
- LogP [1]: 3.4
- bioavailability [2]: 58.1%
- Tmax [2]: 0.9 ± 0.72 h
- AUC(0-inf) [2]: 6200 ± 1330 ng·h/mL
- AUC(0-t) [2]: 6130 ± 1350 ng·h/mL
- Cmax [2]: 1710 ± 450 ng/mL
- MRT inf [2]: 3.35 ± 0.8 h
- half-life [2]: 2.48 ± 0.66 h
- CL [2]: 36.5 ± 7.5 mL/min/kg
- Vd, λz [2]: 7.87 ± 2.84 L/kg
- inhibition of CYP2D6 isoenzyme activity [3]: significantly inhibit
- AUC(0-inf) [4]: 2130 ± 400 ng·h/mL
- AUC(0-t) [4]: 2090 ± 380 ng·h/mL
- C0 [4]: 2580 ± 890 ng/mL
- MRT inf [4]: 2.07 ± 0.74 h
- clearance [4]: 35.8 mL/min/kg
- Vd [4]: 9.48 ± 3.17 L/kg
- half-life [4]: 2.09 ± 0.64 h
- oral bioavailability ([6]; oral administration of pure NF, LC-MS/MS, ref Xie et al., 2010): 69.56%
- oral bioavailability ([6]; pure NF, ref Gu et al., 2014): 3.9%
- AUC(0-inf) [5, 7]: 830 ± 130 ng·h/mL
- AUC(0-t) [5, 7]: 780 ± 130 ng·h/mL
- MRT inf [5, 7]: 2.46 ± 0.35 h
- half-life [5, 7]: 1.24 ± 0.33 h
- Tmax [5]: 0.89 ± 0.17 h
- Cmax [5, 7]: 320 ± 70 ng/mL
- CL/F [5, 7]: 184.7 ± 30 mL/min/kg
- Vd, λz/F [5, 7]: 19.78 ± 5.79 L/kg
